Measured values as given in article PMC13050480, “Preclinical Development of GT-14, a Novel Inhibitor of Gαi2 Protein: Comprehensive Evaluation of Physicochemical, Metabolic Characteristics and Tissue Distribution” (The AAPS journal, 2025).
Where “and” joins values, the source holds several entries; their conditions need not be identical. Equal entries are not always repeated. Entries after “also recorded” stand apart in the source; their conditions may differ. Where two headings read alike, the source gives them in different places.

What was measured:
[1] = pH-dependent stability in USP buffers; format: physicochemical; settings: 25°C
Description: The pH-dependent stability of GT-14 was assessed in aqueous media of pH ranging from 1 to 10 at room temperature. Standard USP buffers ([11]) were prepared and used for this experiment. Details of buffer solutions are provided in Table I. For the pH solubility profile, GT-14 solid was added in excess amounts in various buffer solutions.
To determine the stability of GT-14 in different buffers, GT-14 stock solution (prepared in ACN at a concentration of 75 μg/mL) was added to different buffers to achieve a target concentration of 5 μg/mL. Each buffer solution was prepared in triplicate. All solutions were put on the shaker bath maintained at 25°C. Aliquots were withdrawn at predetermined time points (0, 24, 72, 96, and 120 hrs), centrifuged at 15,000 rpm for 10 min, diluted with Water: ACN (50:50, v/v), and analyzed by the UPLC assay.

[2] = Cosolvent formulation: solubility, saline dilution and storage stability; format: physicochemical; settings: for solubility: organic solvent or mixture
Description: Co-solvent systems with various compositions and ratios of PEG 400, PEG 300, and propylene glycol were prepared to solubilize 5–10 mg/mL of GT-14. Each system was diluted with normal saline at different ratios of 1:1, 1:3, 1:7, and 1:15 (v/v) and observed for signs of precipitation for 4 h. The cosolvent system with maximum solubility and aqueous tolerance was tested for stability at different temperatures (−20°C, 4°C, and room temperature) in amber glass vials for up to a month. Samples were aliquoted at different time points and analyzed with UPLC.

[3] = parameters: method as in PMID 38744031; settings: rat, cited from earlier work

- pH stability (in words) ([1]; acidic to neutral pH 1.2–7.4, 120 hours): relatively stable
- pH stability, % remaining ([1]; pH 1.2–7.4, up to 120 hours): > 90% remaining
- Percentage Recovery, cosolvent formulation ([2]; 4°C, Day 7): 101.09 ± 2.19%
- Percentage Recovery, cosolvent formulation ([2]; 4°C, Day 15): 99.14 ± 0.32%
- Percentage Recovery, cosolvent formulation ([2]; 4°C, Day 30): 98.83 ± 0.15%
- solubility ([2]; PEG300: PEG400: Propylene glycol (1:1:1), PEG300: PEG400: Propylene glycol, ratio 1:1:1, read-out: Solubility in cosolvent formulation): 6000 µg/mL
- solubility ([2]; PEG300: PEG400: Propylene glycol (3:2:2 v/v), optimum, PEG300: PEG400: Propylene glycol, ratio 3:2:2 v/v, read-out: Solubility in cosolvent formulation (optimum)): 8000 µg/mL
- increase of solubility in optimum cosolvent formulation over water solubility ([2]; PEG 300:PEG 400:propylene glycol 3:2:2): over 70 times
- solubility ([2]; PEG 400: Propylene glycol: Tween 80 (2:1:0.25), PEG 400: Propylene glycol: Tween 80, ratio 2:1:0.25, read-out: Solubility in cosolvent formulation): 5000 µg/mL
- Percentage Recovery, cosolvent formulation ([2]; Room Temperature, Day 7): 93.4% and 93.37± 0.76%
- Percentage Recovery, cosolvent formulation ([2]; Room Temperature, Day 15): 91.18 ± 0.38%
- Percentage Recovery, cosolvent formulation ([2]; Room Temperature, Day 30): 90.88 ± 0.07%
- appearance of cosolvent formulation after one month ([2]; room temperature): grew a darker color
- Percentage Recovery, cosolvent formulation ([2]; −20°C, Day 7): 100.32 ± 0.08%
- Percentage Recovery, cosolvent formulation ([2]; −20°C, Day 15): 101.22 ± 0.27%
- Percentage Recovery, cosolvent formulation ([2]; −20°C, Day 30): 101.26 ± 0.39%
Compound: C/C(=N\c1ccc(O)cc1)c1cc2ccccc2n1C [GT-14, (E)-4-((1-(1-methyl-1H-indol-2-yl)ethylidene)amino)phenol]
- pH stability (in words) ([1]; alkaline pH 9–10, 120 hours): significant degradation; also recorded: degrading; also recorded: degradation is significantly pronounced
- precipitation on dilution of cosolvent formulation with saline ([2]; optimum cosolvent formulation, several ratios of saline): No precipitation was observed till a 10X dilution with saline
- appearance of cosolvent formulation after one month ([2]; −20°C and 4°C): remained light yellow, without any visible particles
- maximum plasma concentration (Cmax) ([3]; IV bolus 5 mg/kg, two-compartment model): approximately 200 ng/mL
- terminal plasma elimination half-life ([3]; IV bolus 5 mg/kg, 5 mg/kg): 4.4678 h and 4.468 h
- AUC0–∞ ([3]; IV bolus 5 mg/kg): 23,742 min*ng/mL
- apparent volume of distribution (Vd) ([3]; IV bolus 5 mg/kg): 25,205 ± 2,585 mL/kg
- distribution half-life ([3]; IV bolus 5 mg/kg): 0.267 h
- mean systemic clearance (CL) ([3]; IV bolus 5 mg/kg): 229.9 mL/min/kg
- Plasma half-life in rats ([3]; IV): 4 to 5 h
- terminal plasma elimination half-life ([3]; IV): > 4 h
